Measurements from ChEMBL document CHEMBL1201862, “PubChem BioAssay data set” (2004).
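Assay format: 96-well plates, 48-hour exposure. At the GI50, growth is halved.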 Active and inactive are the calls of the source. Cut-off read from the data, not from the text of the source: active = GI50 up to about 1.1 µM and inactive = higher.

Tests used:
Test in all cases: growth of human tumour cells (NCI), 48 h
[1] = test system: BT-549
[2] = test system: COLO 205
[3] = test system: HCC 2998
[4] = test system: Hs-578T
[5] = test system: K562
[6] = test system: LOX IMVI
[7] = test system: M14
[8] = test system: MCF7
[9] = test system: MDA-MB-231
[10] = test system: MDA-MB-435
[11] = test system: MDA-N
[12] = test system: MOLT-4
[13] = test system: NCI-H226
[14] = test system: OVCAR-3
[15] = test system: OVCAR-4
[16] = test system: RXF 393
[17] = test system: SK-OV-3
[18] = test system: T47D
[19] = test system: UO-31
[20] = test system: HL-60

Row | Compound | GI50 [1] | GI50 [2] | GI50 [3] | GI50 [4] | GI50 [5] | GI50 [6] | GI50 [7] | GI50 [8] | GI50 [9] | GI50 [10] | GI50 [11] | GI50 [12] | GI50 [13] | GI50 [14] | GI50 [15] | GI50 [16] | GI50 [17] | GI50 [18] | GI50 [19] | GI50 [20]
1 | O=C(NCCN1CCCCC1)c1ccc(I)cc1 | > 100 µM (inactive) | 94.6 µM (inactive) | > 100 µM (inactive) | 61 µM (inactive) | > 100 µM (inactive) | > 100 µM (inactive) | > 100 µM (inactive) | > 100 µM (inactive) | > 100 µM (inactive) | > 100 µM (inactive) | > 100 µM (inactive) | > 100 µM (inactive) | > 100 µM (inactive) | > 100 µM (inactive) | > 100 µM (inactive) | 42.4 µM (inactive) | > 100 µM (inactive) | > 100 µM (inactive) | > 100 µM (inactive) | 
2 | Oc1nc(S)nc2c1CN(CCCN1CCOCC1)CN2 | 75.2 µM (inactive) | 18.3 µM (inactive) | 21.9 µM (inactive) | > 100 µM (inactive) | 67.9 µM (inactive) | 24.7 µM (inactive) | 25.5 µM (inactive) | 34.7 µM (inactive) | 26.7 µM (inactive) | 22.5 µM (inactive) | 43.6 µM (inactive) | 28.2 µM (inactive) | > 100 µM (inactive) | 38.5 µM (inactive) | 38.5 µM (inactive) |  |  | 35.4 µM (inactive) | 36.8 µM (inactive) | 
3 | C=C1C(C)C2C(Cc3ccccc3)NC(=O)C23C(OC(C)=O)C=CC(C)(O)C(=O)C(C)C/C=C/C3C1O (configuration not stated) | 0.407 µM (active) | 0.535 µM (active) | 21.7 µM (inactive) | 0.0652 µM (active) | 33.1 µM (inactive) | 0.101 µM (active) | 7.24 µM (inactive) | 6.76 µM (inactive) | 0.151 µM (active) | 51.1 µM (inactive) | 15.6 µM (inactive) |  | 3.85 µM (inactive) | 22.4 µM (inactive) | 3.55 µM (inactive) | 0.0865 µM (active) | 0.752 µM (active) |  | 0.296 µM (active) | 4.57 µM (inactive)
4 | O=[N+]([O-])c1ccc(/C=N/Nc2nc3ccccc3[nH]2)o1 | 15 µM (inactive) | 10.6 µM (inactive) |  | 33.3 µM (inactive) | 13.1 µM (inactive) | 13.9 µM (inactive) | 12.7 µM (inactive) |  | 32.4 µM (inactive) | 4.45 µM (inactive) | 7.57 µM (inactive) | 11.2 µM (inactive) | 22.2 µM (inactive) | 11.1 µM (inactive) | 8.69 µM (inactive) | 14.6 µM (inactive) | 33.7 µM (inactive) | 13.6 µM (inactive) | 18.7 µM (inactive) | 1.31 µM (inactive)
5 | COc1cccc(CCNc2c(C#N)c3nc4ccccc4n3c3ccccc23)c1 | 0.618 µM (active) | 0.447 µM (active) | 0.643 µM (active) | 0.498 µM (active) | 0.141 µM (active) | 0.63 µM (active) | 4.23 µM (inactive) | 0.0775 µM (active) | 2.33 µM (inactive) | 0.118 µM (active) |  | 0.769 µM (active) | 1.58 µM (inactive) | 3.87 µM (inactive) | 2.79 µM (inactive) | 0.607 µM (active) | 1.18 µM (inactive) | 2.17 µM (inactive) | 2.81 µM (inactive) | 0.34 µM (active)
6 | O=[N+]([O-])/C(C(Cl)=C(Cl)Cl)=C(\Nc1cccc2ccccc12)Sc1ccccc1 | 18.4 µM (inactive) | 15.1 µM (inactive) | 17.8 µM (inactive) | 12.8 µM (inactive) | 57.3 µM (inactive) |  | 24.9 µM (inactive) | 12.6 µM (inactive) | 11.3 µM (inactive) | 13.8 µM (inactive) | 16.5 µM (inactive) | > 100 µM (inactive) | 16.1 µM (inactive) | 7.31 µM (inactive) | 10.4 µM (inactive) | 12.9 µM (inactive) | 26.1 µM (inactive) | 19.5 µM (inactive) | 16 µM (inactive) | 
7 | CCOC(=O)Oc1cc2ccsc2c2c1c1ccccc1n2C(=O)OCC | 59 µM (inactive) | > 100 µM (inactive) |  | 36.4 µM (inactive) | > 100 µM (inactive) | > 100 µM (inactive) | 31.3 µM (inactive) | 59 µM (inactive) | 35.6 µM (inactive) | 68.9 µM (inactive) | 31 µM (inactive) | > 100 µM (inactive) | 42.2 µM (inactive) | 70.1 µM (inactive) | 40.3 µM (inactive) | 22.2 µM (inactive) | 29 µM (inactive) | 28.6 µM (inactive) | 24.2 µM (inactive) | 
8 | NC(CCCCNC(=O)OCc1ccccc1)C(=O)NC(CCCCNC(=O)OCc1ccccc1)C(=O)ON1C(=O)CCC1=O (configuration not stated) | > 100 µM (inactive) | > 100 µM (inactive) | > 100 µM (inactive) | > 100 µM (inactive) | > 100 µM (inactive) |  | > 100 µM (inactive) | > 100 µM (inactive) | > 100 µM (inactive) |  | > 100 µM (inactive) | > 100 µM (inactive) | > 100 µM (inactive) |  |  | 52.7 µM (inactive) |  | > 100 µM (inactive) | > 100 µM (inactive) | > 100 µM (inactive)
9 | CC(C)(C)C1=CC(=C2C=Cc3cc(O)ccc3O2)C=C(C(C)(C)C)C1=O | 1.79 µM (inactive) | 1.72 µM (inactive) | 1.26 µM (inactive) | 2.27 µM (inactive) | 2.13 µM (inactive) | 1.56 µM (inactive) | 1.69 µM (inactive) | 1.07 µM (active) | 1.7 µM (inactive) | 1.5 µM (inactive) |  | 0.435 µM (active) | 1.85 µM (inactive) | 1.21 µM (inactive) | 1.31 µM (inactive) | 1.45 µM (inactive) | 2.21 µM (inactive) | 0.627 µM (active) | 1.24 µM (inactive) | 1.08 µM (active)
10 | Cc1ccc2nc3[nH]nc(N)c3nc2c1 | 67 µM (inactive) | > 100 µM (inactive) | > 100 µM (inactive) | 89.3 µM (inactive) |  | > 100 µM (inactive) | > 100 µM (inactive) | > 100 µM (inactive) | > 100 µM (inactive) | > 100 µM (inactive) | 51.1 µM (inactive) | 68.5 µM (inactive) | 45.3 µM (inactive) | > 100 µM (inactive) | > 100 µM (inactive) | 60 µM (inactive) | > 100 µM (inactive) | 65.3 µM (inactive) | 52 µM (inactive) | 
11 | Nc1nonc1-c1noc(-c2nonc2N)[n+]1[O-] | 64.1 µM (inactive) | > 10 µM (inactive) | > 100 µM (inactive) | > 100 µM (inactive) | 41 µM (inactive) | 63.2 µM (inactive) | 29.6 µM (inactive) | 33.3 µM (inactive) | > 100 µM (inactive) | 57 µM (inactive) | 69.7 µM (inactive) | 54.6 µM (inactive) | 49.5 µM (inactive) |  | > 100 µM (inactive) | 24.9 µM (inactive) | > 100 µM (inactive) | > 10 µM (inactive) | 42.9 µM (inactive) | 
